Results taken from US11186579B2 (Gilead Sciences, Inc., priority 2018, dated 2021).
pEC50: −log10 of the molar value.

Target: T1, IDO1 (Homo sapiens, UniProt P14902)
T1 construct: HeLa cells were treated with a test compound in the presence of IFNγ, which induces IDO1 expression; endogenous in cells; host or cells: H1-HeLa cells (ATCC #CRL-1958), IDO1 induced with IFNγ
Assay: Cell-Based (HeLa) Assay for Measurement of IDO1 Inhibition
Settings: H1-HeLa cells, IDO1 induced with IFNγ, 48 hour incubation, kynurenine in supernatant (absorbance 480 nm); geometric mean of minimum four determinations
Method: To measure IDO1 inhibition in tissue culture, HeLa cells were treated with a test compound in the presence of IFNγ, which induces IDO1 expression. Following incubation, cell supernatants were assayed for kynurenine levels, an indicator of IDO1 activity.
The following day, the test compounds were added in DMSO (0.5% final) at various concentrations, and IDO1 was inducibly expressed by the addition of 50 uL/well of 50 ng/mL of INFγ (Peprotech #300-02) in cell plating media. As a positive control, 50 uL of the cell plating media without IFNγ was added to several wells. Following a 48 hour incubation, the plates were spun down at 1,200 RPM for 5 min at 10° C. 65 μL/well of the supernatant was then transferred to new 384-well plates (Thermo #262160) that contained 10 uL/well of 30% TCA (Sigma #TO699), and the plates were sealed and incubated at 60° C. for 30 min. The plates were then centrifuged for 15 min at 2,000 RPM at 10° C. 40 μL/well of the supernatant was transferred to new 384-well plates (Thermo #262160) and was reacted with 40 μL/well of 2% (w/v) p-dimethlyaminobenzaldehyde (Sigma #156417) in glacial acetic acid (Sigma #A6283). The reaction was incubated at room temperature for 10 min and absorbance at 480 nm was read using a PerkinElmer Envision plate reader.
Data in Table 1 were normalized based on positive (-IFNγ) and negative (+IFNγ) controls and EC50 values were calculated from the fit of the dose-response curves to a four-parameter equation. All EC50 values represent geometric mean values of a minimum of four determinations.

T1 sequence (P14902 whole entry): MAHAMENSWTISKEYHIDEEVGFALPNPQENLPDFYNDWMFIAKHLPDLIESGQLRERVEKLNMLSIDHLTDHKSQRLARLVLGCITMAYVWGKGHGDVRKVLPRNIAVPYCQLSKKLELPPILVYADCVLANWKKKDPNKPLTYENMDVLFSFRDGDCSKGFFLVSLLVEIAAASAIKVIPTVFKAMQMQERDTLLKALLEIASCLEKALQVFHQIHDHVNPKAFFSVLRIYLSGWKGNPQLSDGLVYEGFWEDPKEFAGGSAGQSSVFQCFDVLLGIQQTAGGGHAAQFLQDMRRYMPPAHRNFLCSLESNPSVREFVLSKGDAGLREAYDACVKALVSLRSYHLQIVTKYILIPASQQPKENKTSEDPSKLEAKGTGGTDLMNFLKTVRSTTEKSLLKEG

SMILES | pEC50
O=C(Nc1ccc(F)cc1)c1cc(-c2cccn3c(-c4cccnc4)c(CO)nc23)ccc1C(F)(F)F [Example 21, N-(4-fluorophenyl)-5-(2-(hydroxymethyl)-3-(pyridin-3-yl)imidazo[1,2-a]pyridin-8-yl)-2-(trifluoromethyl)benzamide] | 7.05
Cc1cnc(-c2cccn3c(-c4cccc(F)c4F)cnc23)cc1C(=O)Nc1ccc(F)cc1 [Example 8, 2-(3-(2,3-difluorophenyl)imidazo[1,2-a]pyridin-8-yl)-N-(4-fluorophenyl)-5-methylisonicotinamide] | 6.02
Cc1ncccc1-c1cnc2c(-c3ccc(C(F)(F)F)c(C(=O)Nc4ccc(F)cc4)c3)cccn12 [Example 9, N-(4-fluorophenyl)-5-(3-(2-methylpyridin-3-yl)imidazo[1,2-a]pyridin-8-yl)-2-(trifluoromethyl)benzamide] | 6.27
O=C(Nc1ccc(F)cc1)c1cc(-c2cccn3c(-c4cccnc4)c(CO)nc23)ccc1Cl [Example 15, 2-chloro-N-(4-fluorophenyl)-5-(2-(hydroxymethyl)-3-(pyridin-3-yl)imidazo[1,2-a]pyridin-8-yl)benzamide] | 6.57
Cc1ncc(-c2cccn3c(-c4cccc(F)c4F)cnc23)cc1C(=O)Nc1ccc(F)cc1 [Example 12, 5-(3-(2,3-difluorophenyl)imidazo[1,2-a]pyridin-8-yl)-N-(4-fluorophenyl)-2-methylnicotinamide] | 6.39
O=C(Nc1ccc(F)cc1)c1nc(-c2cccn3c(-c4cccc(F)c4F)cnc23)ccc1C(F)(F)F [Example 24, 6-(3-(2,3-difluorophenyl)imidazo[1,2-a]pyridin-8-yl)-N-(4-fluorophenyl)-3-(trifluoromethyl)picolinamide] | 7.19
O=C(Nc1ccc(F)cc1)c1cc(-c2cccn3c(-c4ccncc4)cnc23)ccc1C(F)(F)F [Example 6, N-(4-fluorophenyl)-5-(3-(pyridin-4-yl)imidazo[1,2-a]pyridin-8-yl)-2-(trifluoromethyl)benzamide] | 5.85
Cc1ncc(-c2ccnn3c(-c4cccc(F)c4F)cnc23)cc1C(=O)Nc1ccc(F)cc1 [Example 13] | 6.40
O=C(Nc1ccc(F)cc1)c1cc(-c2cccn3c(-c4cccc(F)c4F)cnc23)ncc1C(F)(F)F [Example 3, 2-(3-(2,3-difluorophenyl)imidazo[1,2-a]pyridin-8-yl)-N-(4-fluorophenyl)-5-(trifluoromethyl)isonicotinamide] | 5.62
Cc1ncc(-c2cccn3c(-c4cncc(F)c4)c(CO)nc23)cc1C(=O)Nc1ccc(F)cc1 [Example 2, N-(4-fluorophenyl)-5-(3-(5-fluoropyridin-3-yl)-2-(hydroxymethyl)imidazo[1,2-a]pyridin-8-yl)-2-methylnicotinamide] | 5.44
Cc1ccc(-c2cnc3c(-c4ccc(C(F)(F)F)c(C(=O)Nc5ccc(F)cc5)c4)cccn23)cn1 [Example 4, N-(4-fluorophenyl)-5-(3-(6-methylpyridin-3-yl)imidazo[1,2-a]pyridin-8-yl)-2-(trifluoromethyl)benzamide] | 5.65
Cc1cccc(-c2cnc3c(-c4ccc(C(F)(F)F)c(C(=O)Nc5ccc(F)cc5)c4)cccn23)n1 [Example 5] | 5.77
Cc1ccc(-c2cccn3c(-c4cccc(F)c4F)cnc23)nc1C(=O)Nc1ccc(F)cc1 [Example 16, 6-(3-(2,3-difluorophenyl)imidazo[1,2-a]pyridin-8-yl)-N-(4-fluorophenyl)-3-methylpicolinamide] | 6.77
Cc1ccc(-c2cccn3c(-c4ccccc4F)cnc23)cc1C(=O)Nc1ccc(F)cc1 [Example 23, N-(4-fluorophenyl)-5-(3-(2-fluorophenyl)imidazo[1,2-a]pyridin-8-yl)-2-methylbenzamide] | 7.14
O=C(Nc1ccc(F)cc1)c1cc(-c2cccn3c(-c4cccc(F)c4F)c(CO)nc23)ccc1C(F)(F)F [Example 28, 5-(3-(2,3-difluorophenyl)-2-(hydroxymethyl)imidazo[1,2-a]pyridin-8-yl)-N-(4-fluorophenyl)-2-(trifluoromethyl)benzamide] | 7.40
Cc1ccc(-c2cccn3c(-c4ccccc4)cnc23)cc1C(=O)Nc1ccc(F)cc1 [Example 17, N-(4-fluorophenyl)-2-methyl-5-(3-phenylimidazo[1,2-a]pyridin-8-yl)benzamide] | 6.77
Cc1ccc(-c2cccn3c(-c4cccc(F)c4)cnc23)cc1C(=O)Nc1ccc(F)cc1 [Example 19, N-(4-fluorophenyl)-5-(3-(3-fluorophenyl)imidazo[1,2-a]pyridin-8-yl)-2-methylbenzamide] | 6.84
O=C(Nc1ccc(F)cc1)c1cc(-c2cccn3c(-c4cccnc4F)cnc23)ccc1C(F)(F)F [Example 22, N-(4-fluorophenyl)-5-(3-(2-fluoropyridin-3-yl)imidazo[1,2-a]pyridin-8-yl)-2-(trifluoromethyl)benzamide] | 7.13
Cc1nc2c(-c3ccc(C(F)(F)F)c(C(=O)Nc4ccc(F)cc4)c3)cccn2c1-c1cccnc1 [Example 18, N-(4-fluorophenyl)-5-(2-methyl-3-(pyridin-3-yl)imidazo[1,2-a]pyridin-8-yl)-2-(trifluoromethyl)benzamide] | 6.78
COCCOCc1nc2c(-c3ccc(C(F)(F)F)c(C(=O)Nc4ccc(F)cc4)c3)cccn2c1-c1cccc(F)c1F [Example 1, 5-(3-(2,3-difluorophenyl)-2-((2-methoxyethoxy)methyl)imidazo[1,2-a]pyridin-8-yl)-N-(4-fluorophenyl)-2-(trifluoromethyl)benz amide] | 5.06
Cc1ncc(-c2cccn3c(-c4cccc(F)c4F)c(CO)nc23)cc1C(=O)Nc1ccc(F)cc1 [Example 14, 5-(3-(2,3-difluorophenyl)-2-(hydroxymethyl)imidazo[1,2-a]pyridin-8-yl)-N-(4-fluorophenyl)-2-methylnicotinamide] | 6.43
O=C(Nc1ccc(F)cc1)c1cc(-c2cccn3c(-c4cccc(F)c4F)cnc23)cnc1C(F)(F)F [Example 20, 5-(3-(2,3-difluorophenyl)imidazo[1,2-a]pyridin-8-yl)-N-(4-fluorophenyl)-2-(trifluoromethyl)nicotinamide] | 7.05
Cc1ccc(-c2cccn3c(-c4cccc(F)c4F)c(C)nc23)cc1C(=O)Nc1ccc(F)cc1 [Example 11, 5-(3-(2,3-difluorophenyl)-2-methylimidazo[1,2-a]pyridin-8-yl)-N-(4-fluorophenyl)-2-methylbenzamide] | 6.36
Fc1ccc2[nH]c(-c3cc(-c4cccn5c(-c6cccc(F)c6F)cnc45)ccc3C(F)(F)F)nc2c1 [Example 36, 2-(5-(3-(2,3-difluorophenyl)imidazo[1,2-a]pyridin-8-yl)-2-(trifluoromethyl)phenyl)-5-fluoro-1H-benzo[d]imidazole] | 6.15
NCc1nc2c(-c3ccc(C(F)(F)F)c(C(=O)Nc4ccc(F)cc4)c3)cccn2c1-c1cccc(F)c1F [Example 7, 5-(2-(aminomethyl)-3-(2,3-difluorophenyl)imidazo[1,2-a]pyridin-8-yl)-N-(4-fluorophenyl)-2-(trifluoromethyl)benzamide] | 6.00
